Assay results published in US20060111381A1, “Amidine compounds” (priority 2002, published 2006).
Where “and” joins values, the source holds several entries; their conditions need not be identical. Identical values can stand only once.

Legend:
human μ-opiate receptor = biological target: T1, human μ-opiate receptor (Homo sapiens, UniProt P35372); assay: In vitro opiate receptor radioligand binding assay (MDS 260410); details: test compound 10 μM, read-out: Percentage Inhibition of Radioligand Binding
T1 construct: purchased MDS Pharma Services 260410
T1 sequence (P35372 whole entry): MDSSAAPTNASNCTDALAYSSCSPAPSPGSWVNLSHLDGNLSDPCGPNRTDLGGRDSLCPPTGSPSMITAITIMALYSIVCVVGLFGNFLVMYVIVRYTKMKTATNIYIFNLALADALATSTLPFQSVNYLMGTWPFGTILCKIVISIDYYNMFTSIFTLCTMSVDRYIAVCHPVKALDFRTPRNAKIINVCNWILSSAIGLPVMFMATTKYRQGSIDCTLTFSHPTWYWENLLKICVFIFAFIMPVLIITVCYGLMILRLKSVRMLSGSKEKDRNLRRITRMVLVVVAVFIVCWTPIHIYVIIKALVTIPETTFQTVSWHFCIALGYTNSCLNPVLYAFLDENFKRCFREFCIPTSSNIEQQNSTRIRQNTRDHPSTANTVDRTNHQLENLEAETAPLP
Experimental: (§1) To characterise the target specificity of the compounds, KRS-6-41, KRS-6-48 and KRS-6-51 were tested at a concentration of 10 μM for their ability to inhibit the binding of a radioligand to human δ-, κ-, or μ-opiate receptors in vitro using commercially available assays (MDS Pharma Services; assay catalogue numbers 260110, 260210 and 260410 respectively).

ICR mice [1] = assay: Phenylquinone-induced writhing model in mice (writhes counted in following 5-10 minute period); assay type: in vivo; details: for No. of Writhings, Individual: individual mice; for % Inhibition: relative to vehicle group
Experimental: (§2) Testing on compound KRS-6-48 was carried out under contract by MDS Services—Taiwan Ltd. KRS-6-48 was evaluated for possible analgesic activity in the phenylquinone-induced writhing model in mice (Siegmund et al, 1957). A serial 2-fold dosage variance was used in the test, from 128 mg/kg to 1 mg/kg (8 doses in total). Groups of 3 male or female ICR mice weighing 22±2 g were employed. Variant doses (1, 2, 4, 8, 16, 32, 64 and 128 mg/kg) of test substances were administered intraperitoneally (IP). A vehicle of 2% Tween 80 in 0.9% NaCl was used for the intraperitoneal injection. The control group received vehicle alone. […] A reduction in the number of writhes by 50 percent or more (≧50%) relative to the vehicle-treated group indicated possible analgesic activity.
Testing on compounds KRS-6-41, KRS-6-51, and KRS-6-71 was also carried out under contract by MDS Services—Taiwan Ltd. The study was designed to evaluate the effects of the compounds as analgesics in the phenylquinone-induced writhing assay described in detail in Example 10 (Siegmund et al, 1957).
as §2, with “In each case, a” for “Testing on compound KRS-6-48 was carried out under contract by MDS Services—Taiwan Ltd. KRS-6-48 was evaluated for possible analgesic activity in the phenylquinone-induced writhing model in mice (Siegmund et al, 1957). A”

ICR mice [2] = assay: Straub tail behaviour (indicator of CNS activity) in writhing-study mice
human κ-opiate receptor = biological target: T2, human κ-opiate receptor (Homo sapiens, UniProt P41145); assay: In vitro opiate receptor radioligand binding assay (MDS 260210); details: test compound 10 μM, read-out: Percentage Inhibition of Radioligand Binding
T2 construct: purchased MDS Pharma Services 260210
T2 sequence (P41145 whole entry): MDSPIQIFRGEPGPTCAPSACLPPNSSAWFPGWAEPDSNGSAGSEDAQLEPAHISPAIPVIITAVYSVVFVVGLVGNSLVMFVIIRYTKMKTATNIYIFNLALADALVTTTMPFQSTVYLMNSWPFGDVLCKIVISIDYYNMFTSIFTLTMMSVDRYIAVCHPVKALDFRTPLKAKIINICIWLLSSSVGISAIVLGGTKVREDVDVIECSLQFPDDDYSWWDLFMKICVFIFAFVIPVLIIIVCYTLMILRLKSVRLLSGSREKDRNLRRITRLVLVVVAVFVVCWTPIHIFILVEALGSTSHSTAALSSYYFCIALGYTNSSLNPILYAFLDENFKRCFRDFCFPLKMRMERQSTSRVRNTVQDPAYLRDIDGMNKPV
Experimental: as §1

human δ-opiate receptor = biological target: T3, human δ-opiate receptor (Homo sapiens, UniProt P41143); assay: In vitro opiate receptor radioligand binding assay (MDS 260110); details: test compound 10 μM, read-out: Percentage Inhibition of Radioligand Binding
T3 construct: purchased MDS Pharma Services 260110
T3 sequence (P41143 whole entry): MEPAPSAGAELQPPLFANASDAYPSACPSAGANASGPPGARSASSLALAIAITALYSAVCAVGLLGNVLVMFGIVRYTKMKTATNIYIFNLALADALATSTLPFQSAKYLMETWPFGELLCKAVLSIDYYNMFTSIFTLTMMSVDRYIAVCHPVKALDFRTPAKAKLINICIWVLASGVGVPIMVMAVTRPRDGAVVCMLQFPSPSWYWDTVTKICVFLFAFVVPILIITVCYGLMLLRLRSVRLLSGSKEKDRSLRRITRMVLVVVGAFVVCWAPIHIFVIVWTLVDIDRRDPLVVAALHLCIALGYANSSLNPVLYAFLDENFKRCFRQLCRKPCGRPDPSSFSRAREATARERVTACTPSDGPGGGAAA
Experimental: as §1

ICR mice [3] = assay: Deaths and adverse signs observed in writhing-study mice; assay type: in vivo; details: 128 mg/kg IP
Experimental: as §2
as §2, with “In each case, a” for “Testing on compound KRS-6-48 was carried out under contract by MDS Services—Taiwan Ltd. KRS-6-48 was evaluated for possible analgesic activity in the phenylquinone-induced writhing model in mice (Siegmund et al, 1957). A”

ICR mice [4] = assay: Phenylquinone-induced writhing model in mice, KRS-6-98 study (writhes counted in following 10-15 minute period); assay type: in vivo; details: for Number of Writhings, Average / Number of Writhings, Individual / % Inhibition: 10-15 minute period; for Number of Writhings, Individual: individual mice; for % Inhibition: relative to vehicle group
Experimental: Testing of compound KRS-6-98 was carried out under contract by MDS Pharma Services—Taiwan. The study was essentially the same as that set out in Examples 12 and 13, and was designed to evaluate the effect of the compound as an analgesic in the phenylquinone-induced writhing assay described in detail in Example 10 (Siegmund et al, 1957).
A serial two-fold dosage variance was used in the test, from 128 mg/kg to 1 mg/kg (8 doses in total). Twenty six groups of 3 male or female ICR mice weighing 22±2 g were employed. The variant doses of the test substance were administered intraperitoneally (IP). A vehicle of 2% Tween 80 in 0.9% NaCl was used for the intraperitoneal injection. The control group received the vehicle alone. […] A reduction of the number of writhes by 50% or more (≧50%) relative to the vehicle-treated group indicate a possible analgesic activity.

## CC(=Nc1ccccc1)NCCCN1CC[C@]23c4c5ccc(O)c4O[C@H]2[C@@H](O)C=CC3[C@H]1C5 (stereo partly drawn) [KRS-6-51, (5α,6α)-7,8-didehydro-4,5-epoxy-17-((N-phenylacetamidino)-propyl)morphinan, 3,6-diol]
Human μ-opiate receptor
  inhibition at 10 µM: 97%
ICR mice [1]; 1 mg/kg IP
  No. of Writhings, Average: 12
  No. of Writhings, Individual: 11 and 14 and 12
  % Inhibition: 20%
ICR mice [1]; 2 mg/kg IP
  No. of Writhings, Average: 11
  No. of Writhings, Individual: 18 and 9 and 7
  % Inhibition: 27%
ICR mice [1]; 4 mg/kg IP
  No. of Writhings, Average: 10
  No. of Writhings, Individual: 10 and 13 and 7
  % Inhibition: 33%
ICR mice [1]; 8 mg/kg IP
  No. of Writhings, Average: 8
  No. of Writhings, Individual: 9 and 8 (2×)
  % Inhibition: 47%
ICR mice [1]; 16 mg/kg IP
  No. of Writhings, Average: 8
  No. of Writhings, Individual: 12 and 4 and 7
  % Inhibition: 47%
ICR mice [1]; 32 mg/kg IP
  No. of Writhings, Average: 5
  No. of Writhings, Individual: 3 and 5 and 7
  % Inhibition: 67%
ICR mice [1]; 64 mg/kg IP
  No. of Writhings, Average: 0
  No. of Writhings, Individual: 0
  % Inhibition: 100%
ICR mice [1]; 128 mg/kg IP
  No. of Writhings, Individual: died and 0 (2×)
ICR mice [1]; at doses of 64 and 32 mg/kg IP
  analgesic activity in writhing model (in words): significant activity
ICR mice [2]; any doses (1 to 128 mg/kg IP)
  Straub tail behaviour: None of the test animals exhibited Straub tail behaviour
Human κ-opiate receptor
  inhibition at 10 µM: 54%
Human δ-opiate receptor
  inhibition at 10 µM: 37%
ICR mice [3]
  test animals exhibiting tremors and edema: 2 of the 3
ICR mice [3]; within 15 minutes
  test animals died within 15 minutes: 21 of the 3

## CCC(=Nc1ccc(F)cc1)NCCCN1CC[C@]23c4c5ccc(O)c4O[C@H]2[C@@H](O)C=C[C@H]3[C@H]1C5 [KRS-6-98]
ICR mice [4]; 1 mg/kg IP
  Number of Writhings, Average: 10
  Number of Writhings, Individual: 12 and 10 and 8
  % Inhibition: 44%
ICR mice [4]; 2 mg/kg IP
  Number of Writhings, Average: 7
  Number of Writhings, Individual: 7 (2×) and 6
  % Inhibition: 61%
ICR mice [4]; 4 mg/kg IP
  Number of Writhings, Average: 7
  Number of Writhings, Individual: 10 and 7 and 4
  % Inhibition: 61%
ICR mice [4]; 8 mg/kg IP
  Number of Writhings, Average: 5
  Number of Writhings, Individual: 6 and 7 and 2
  % Inhibition: 72%
ICR mice [4]; 16 mg/kg IP
  Number of Writhings, Average: 4
  Number of Writhings, Individual: 3 and 6 and 4
  % Inhibition: 78%
ICR mice [4]; 32 mg/kg IP
  Number of Writhings, Average: 0
  Number of Writhings, Individual: 0
  % Inhibition: 100%
ICR mice [4]; 64 mg/kg IP
  Number of Writhings, Average: 0
  Number of Writhings, Individual: 0
  % Inhibition: 100%
ICR mice [4]; 128 mg/kg IP
  Number of Writhings, Average: 0
  Number of Writhings, Individual: 0
  % Inhibition: 100%
ICR mice [4]; at all dose levels from 128 down to 2 mg/kg IP
  analgesic activity in writhing model (in words): significant activity

## CN1CC[C@]23c4c5ccc(O)c4O[C@H]2[C@@H](O)C=C[C@H]3[C@H]1C5 [Morphine, reference compound]
ICR mice [1]; 3 mg/kg IP
  No. of Writhings, Average: 0
  No. of Writhings, Individual: 0
  % Inhibition: 100%
ICR mice [2]; 3 mg/kg IP
  test animals exhibiting Straub tail phenomenon: 2 of 3
